Measurements taken from patent publication US20240336565A1, “SOLID FORMS OF OSANETANT” (Acer Therapeutics, Inc., priority 2021, published 2024).

Key:
[1] = Disproportionation study (stirring in water, XRPD, pH of liquor); assay type: physicochemical; conditions: slurry in water at 25° C., 24 h
Method: After 24 h total, a white slurry was observed and was isolated by centrifugation. The solids were analyzed by XRPD. The pH of the filtered liquor was measured at 5.63. […] After 24 h total, a white slurry was observed and was isolated by centrifugation. The solids were analyzed by XRPD. The pH of the filtered liquor was measured (pH=5.09).

[2] = Comparative studies: 7-day stability; assay type: physicochemical; conditions: 7 Day Stability
Method: Osanetant p-toluenesulfonic acid Form 1, osanetant benzene sulfonic acid Form 3, osanetant naphthalene-2-sulfonic acid Form 3, and osanetant phosphoric acid Form 7 were compared. Osanetant phosphoric acid Form 7 was obtained when preparation of osanetant phosphoric acid Form 4 was repeated and found to be not reproducible, and Form 7 was determined to be a mixture of hydrates).
Thus, osanetant benzene sulfonic acid salt Form 1 and osanetant p-toluene sulfonic acid salt Form 1 were identified as advantageous salts.

[3] = Thermodynamic solubility in water and pH buffers; conditions: 24 h Solubility at 37° C.
[4] = Long term stability: thermal stability of solids at 60° C.; assay type: physicochemical; conditions: for T = 1 month Purity / T = 1 day Purity / T = 2 day Purity / T = 4 day Purity / T = 7 day Purity / T = 14 day Purity: solid at 60° C., dark; for T = 2 day Purity: 2 days; for T = 4 day Purity: 4 days; for T = 7 day Purity: 7 days; for T = 14 day Purity: 14 days; for Control Purity: solid, Purity = 100-total other substances
Method: (§1) Osanetant p-toluenesulfonic acid Form 1 and osanetant benzenesulfonic acid Form 1 were tested for long-term stability across a number of different conditions, as detailed below.
Thermal stability of solids at 60° C.—Osanetant p-toluenesulfonic acid Form 1 and osanetant benzenesulfonic acid Form 1 were stored in a darkened oven at 60° C. in glass vials. Samples were taken after T=1, 2, 4, 7, and 14 days storage. […] The purity of the resulting material is described in Table 41: […]

[5] = Long term stability: acid stability (2M HCl) at ambient temperature; assay type: physicochemical; conditions: for Control Purity: 2M HCl ambient study; for T = 1 month Purity / T = 1 day Purity / T = 2 day Purity / T = 4 day Purity / T = 7 day Purity / T = 14 day Purity: 2M HCl, ambient, dark; for T = 2 day Purity: 2 days; for T = 4 day Purity: 4 days; for T = 7 day Purity: 7 days; for T = 14 day Purity: 14 days
Method: as §1
(§2) Acid Stability at Ambient Temperature-Osanetant p-toluenesulfonic acid Form 1 and osanetant benzenesulfonic acid Form 1 were prepared at an osanetant content 10 times the normal working concentration then added to HPLC vials containing 2M HCl and stored in the dark at ambient laboratory conditions. Samples were diluted to 2 mg/mL for analysis and were taken after T=1, 2, 4, 7, and 14 days storage. […] The purity of the resulting material is described in Table 42: […]

[6] = Long term stability: acid stability (2M HCl) at 60° C.; assay type: physicochemical; conditions: for Control Purity: 2M HCl 60° C. study; for T = 1 day Purity / T = 2 day Purity / T = 4 day Purity: 2M HCl, 60° C., dark; for T = 2 day Purity: 2 days; for T = 4 day Purity: 4 days
Method: as §1
Acid Stability at 60° C.—Osanetant p-toluenesulfonic acid Form 1 and osanetant benzenesulfonic acid Form 1 were prepared at an osanetant content 10 times the normal working concentration then added to HPLC vials containing 2M HCl and stored in a darkened oven at 60° C. Samples were diluted to 2 mg/mL for analysis and were taken after T=1, 2, and 4 days storage.

[7] = Long term stability: base (2M NaOH) at ambient temperature; assay type: physicochemical; conditions: for Control Purity: 2M NaOH ambient study; for T = 1 month Purity / T = 1 day Purity / T = 2 day Purity / T = 4 day Purity / T = 7 day Purity / T = 14 day Purity: 2M NaOH, ambient, dark; for T = 2 day Purity: 2 days; for T = 4 day Purity: 4 days; for T = 7 day Purity: 7 days; for T = 14 day Purity: 14 days
Method: as §1
as §2, with “Base” for “Acid Stability”, “Temperature—Osanetant” for “Temperature-Osanetant”, “NaOH” for “HCl”, “44:” for “42:”

[8] = Long term stability: base (2M NaOH) at 60° C.; assay type: physicochemical; conditions: for Control Purity: 2M NaOH 60° C. study; for T = 4 day Purity: 4 days; for T = 7 day Purity: 7 days; for T = 14 day Purity: 14 days
Method: as §1
as §2, with “Base” for “Acid Stability”, “60° C.—Osanetant” for “Ambient Temperature-Osanetant”, “NaOH” for “HCl”, “a darkened oven” for “the dark”, “60° C.” for “ambient laboratory conditions.”, “45:” for “42:”

[9] = Long term stability: oxidation (6% H2O2) at ambient temperature; assay type: physicochemical; conditions: for T = 1 month Purity / T = 1 day Purity / T = 2 day Purity / T = 4 day Purity / T = 7 day Purity / T = 14 day Purity: 6% H2O2, ambient, dark; for T = 2 day Purity: 2 days; for T = 4 day Purity: 4 days; for T = 7 day Purity: 7 days; for T = 14 day Purity: 14 days; for Control Purity: 6% H2O2 ambient study
Method: as §1
as §2, with “Oxidation” for “Acid Stability”, “6% H2O2” for “2M HCl”, “46:” for “42:”

[10] = Long term stability: oxidation (6% H2O2) at 60° C.; assay type: physicochemical; conditions: for Control Purity: 6% H2O2 60° C. study; for T = 1 month Purity / T = 1 day Purity / T = 2 day Purity / T = 4 day Purity / T = 7 day Purity / T = 14 day Purity: 6% H2O2, 60° C., dark; for T = 2 day Purity: 2 days; for T = 4 day Purity: 4 days; for T = 7 day Purity: 7 days; for T = 14 day Purity: 14 days
Method: as §1
as §2, with “Oxidation” for “Acid Stability”, “60° C.—Osanetant” for “Ambient Temperature-Osanetant”, “6% H2O2” for “2M HCl”, “a darkened oven” for “the dark”, “60° C.” for “ambient laboratory conditions.”, “47:” for “42:”

[11] = Solid form stability observations (scale up / polymorph work: drying, ambient conditions, aqueous media); assay type: physicochemical
Method: Two anhydrous forms of the osanetant p-toluenesulfonic acid were synthesized. […] Form 6, described below, was a stable anhydrous form, but hydrated in water and aqueous solvent mixtures.
Advantageously, Form 1 (hydrate) and Form 6 (anhydrous) were stable on drying. Form 1 re-hydrated at room temperature and pressure after KF analysis, when it was heated in an oven to remove the water.
The experiment was cooled to 5° C. at a rate of 0.1° C./min and stirred at 5° C. for 18 h. The slurry was isolated be Buchner filtration: 42.5 mm Ø grade 1 Whatman filter paper; fast Filtration (<30 s); the cake was washed with 1 mL of ethyl acetate; the isolated solids were dried at 40° C. under vacuum for 72 h. […]

SMILES: CC(=O)N(C)C1(c2ccccc2)CCN(CCC[C@]2(c3ccc(Cl)c(Cl)c3)CCCN(C(=O)c3ccccc3)C2)CC1.O=S(=O)(O)c1ccccc1 [Besylate Form 3]
- Liquor pH [1]: 5.09
- HPLC Impurity Content ([2]; 40° C./75% RH): 0.06 % w/w
- HPLC Impurity Content ([2]; 80° C.): 0.24 % w/w
- HPLC Impurity Content ([2]; Ambient Light): 0.05 % w/w
- Concentration ([3]; pH 1.2): 216.3 µg/mL
- Concentration ([3]; pH 4.5): 232.4 µg/mL
- Concentration ([3]; pH 6.8): 363.7 µg/mL

SMILES: CC(=O)N(C)C1(c2ccccc2)CCN(CCCC2(c3ccc(Cl)c(Cl)c3)CCCN(C(=O)c3ccccc3)C2)CC1.O=S(=O)(O)c1ccccc1 (centres unmarked) [benzenesulfonic acid Form 1]
- T = 1 month Purity [4]: 100.0
- T = 1 day Purity [4]: 99.9
- T = 2 day Purity [4]: 99.9
- T = 4 day Purity [4]: 99.9
- T = 7 day Purity [4]: 99.9
- T = 14 day Purity [4]: 100.0
- Control Purity [4]: 99.9
- Control Purity [5]: 99.9
- T = 1 month Purity [5]: 98.5
- T = 1 day Purity [5]: 100.0
- T = 2 day Purity [5]: 100.0
- T = 4 day Purity [5]: 99.9
- T = 7 day Purity [5]: 99.5
- T = 14 day Purity [5]: 99.3
- Control Purity [6]: 99.9
- T = 1 day Purity [6]: 94.7
- T = 2 day Purity [6]: 89.2
- T = 4 day Purity [6]: 81.0
- Control Purity [7]: 99.9
- T = 1 month Purity [7]: 99.9
- T = 1 day Purity [7]: 99.9
- T = 2 day Purity [7]: 99.9
- T = 4 day Purity [7]: 99.9
- T = 7 day Purity [7]: 99.9
- T = 14 day Purity [7]: 100.0
- Control Purity [8]: 99.9
- T = 1 month Purity ([8]; 2M NaOH, 60° C., dark): 95.8
- T = 1 day Purity ([8]; 2M NaOH, 60° C., dark): 99.7
- T = 4 day Purity ([8]; 2M NaOH, 60° C., dark): 98.5
- T = 7 day Purity ([8]; 2M NaOH, 60° C., dark): 97.3
- T = 14 day Purity ([8]; 2M NaOH, 60° C., dark): 95.5
- T = 1 month Purity [9]: 99.5
- T = 1 day Purity [9]: 99.9
- T = 2 day Purity [9]: 99.9
- T = 4 day Purity [9]: 99.9
- T = 7 day Purity [9]: 99.8
- T = 14 day Purity [9]: 99.8
- Control Purity [9]: 99.9
- Control Purity [10]: 99.9
- T = 1 month Purity [10]: 77.8
- T = 1 day Purity [10]: 91.9
- T = 2 day Purity [10]: 97.2
- T = 4 day Purity [10]: 94.8
- T = 7 day Purity [10]: 93.1
- T = 14 day Purity [10]: 76.6

SMILES: CC(=O)N(C)C1(c2ccccc2)CCN(CCC[C@]2(c3ccc(Cl)c(Cl)c3)CCCN(C(=O)c3ccccc3)C2)CC1.Cc1ccc(S(=O)(=O)O)cc1 [osanetant p-toluenesulfonic acid Form 6, (R)-N-(1-(3-(1-benzoyl-3-(3,4-dichlorophenyl)piperidin-3-yl)propyl)-4-phenylpiperidin-4-yl)-N-methylacetamide p-toluenesulfonic acid]
- hydration / form conversion in water and aqueous solvent mixtures [11]: hydrated
- form stability / re-hydration under ambient conditions ([11]; ambient conditions / room temperature and pressure): stable
- form on drying ([11]; drying (40° C. under vacuum where stated)): stable

SMILES: CC(=O)N(C)C1(c2ccccc2)CCN(CCC[C@]2(c3ccc(Cl)c(Cl)c3)CCCN(C(=O)c3ccccc3)C2)CC1.Cc1ccc(S(=O)(=O)O)cc1 [p-toluenesulfonic acid Form 1]
- T = 1 month Purity [4]: 99.5
- T = 1 day Purity [4]: 99.7
- T = 2 day Purity [4]: 99.7
- T = 4 day Purity [4]: 99.7
- T = 7 day Purity [4]: 99.6
- T = 14 day Purity [4]: 99.7
- Control Purity [4]: 99.8
- Control Purity [5]: 99.8
- T = 1 month Purity [5]: 98.0
- T = 1 day Purity [5]: 99.8
- T = 2 day Purity [5]: 99.8
- T = 4 day Purity [5]: 99.9
- T = 7 day Purity [5]: 99.6
- T = 14 day Purity [5]: 99.0
- Control Purity [6]: 99.8
- T = 1 day Purity [6]: 94.8
- T = 2 day Purity [6]: 89.0
- T = 4 day Purity [6]: 80.5
- Control Purity [7]: 99.8
- T = 1 month Purity [7]: 99.7
- T = 1 day Purity [7]: 99.8
- T = 2 day Purity [7]: 99.8
- T = 4 day Purity [7]: 99.8
- T = 7 day Purity [7]: 99.8
- T = 14 day Purity [7]: 99.8
- Control Purity [8]: 99.8
- T = 1 month Purity ([8]; 2M NaOH, 60° C., dark): 94.0
- T = 1 day Purity ([8]; 2M NaOH, 60° C., dark): 99.6
- T = 2 day Purity ([8]; 2M NaOH, 60° C., dark, 2 days): 99.2
- T = 4 day Purity ([8]; 2M NaOH, 60° C., dark): 98.4
- T = 7 day Purity ([8]; 2M NaOH, 60° C., dark): 97.1
- T = 14 day Purity ([8]; 2M NaOH, 60° C., dark): 94.7
- T = 1 month Purity [9]: 99.7
- T = 1 day Purity [9]: 99.8
- T = 2 day Purity [9]: 99.8
- T = 4 day Purity [9]: 99.8
- T = 7 day Purity [9]: 99.8
- T = 14 day Purity [9]: 99.8
- Control Purity [9]: 99.8
- Control Purity [10]: 99.8
- T = 1 month Purity [10]: 65.5
- T = 1 day Purity [10]: 99.3
- T = 2 day Purity [10]: 96.6
- T = 4 day Purity [10]: 97.4
- T = 7 day Purity [10]: 95.2
- T = 14 day Purity [10]: 92.4
